Data as given in patent publication US20250129070A1, “BIFUNCTIONAL ANDROGEN RECEPTOR COMPOUNDS” (priority 2023, published 2025).

How the values were obtained:
Format in all cases: cell-based
VCaP cells = assay: VCaP growth inhibition assay; settings: 30 pM R1881, 9 days, CTG
In short: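 Growth read by CTG luminescence after 9-day exposure to compound (final 100 nM–10 fM, 1:5 steps) plus 30 pM R1881, in phenol red-free DMEM with 5% CSS. Cells pre-incubated 72 h before dosing; IC50 by nonlinear 4-parameter regression.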

AR / CBP ternary complex = assay: Ternary complex formation assay (sandwich ELISA, AR capture / CBP detection) in VCaP cell lysates; settings: 1.5 hours treatment, sandwich ELISA (AR capture, CBP or p300 detection)
In short: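 Anti-AR (AR 441)-coated plates capture AR from lysates of VCaP cells grown ≥3 days at 50K/well in 5% charcoal-stripped FBS, dosed with bifunctional for 1.5 h and lysed 30 min at 4 °C. Co-captured CBP/p300 is probed with rabbit mAb and HRP anti-rabbit, then QuantaRed fluorescence (570/585) is read at 0, 5 and 15 min.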

HEK-293 cells = assay: HEK-293 growth inhibition assay; settings: 3 days, CTG
Experimental: Cluster plates are returned to the incubator (37*C/5% CO2) for 24 hours prior to treatment. […] Cluster plates are returned to the incubator for 3 days.
After the 3-day treatment period, 100 uL media was removed from each well by aspiration and 100 uL room temperature CTG reagent (Promega Cat #G7573) is added back to each well. The cluster plates are placed on a shaker and incubated at room temperature for 20 minutes. Following this shaking/incubation, cluster plates are read on a luminometer (BMG ClarioStar). IC50 values are obtained by graphing the RLU data vs. compound concentration with nonlinear regression 4-parameter logistic curves (GraphPad Prism).

| SMILES | IC50 (VCaP cells) [nM] | EC50 (AR / CBP ternary complex) [nM] | IC50 (HEK-293 cells) [µM] |
| --- | --- | --- | --- |
| COc1cc(OC2C(C)(C)C(NC(=O)c3ccc(N4CCC(CN5CCC(n6nc(N7CCCc8cc(-c9cnn(C)c9)c(C(F)F)cc87)c7c6CCN(C(C)=O)C7)CC5)C(C)C4)cc3)C2(C)C)ccc1C#N (stereo not drawn) [Compound 263, 4-[4-[[4-[5-acetyl-3-[7-(difluoromethyl)-6-(1-methylpyrazol-4-yl)-3,4-dihydro-2H-quinolin-1-yl]-6,7-dihydro-4H-pyrazolo[4,3-c]pyridin-1-yl]-1-piperidyl]methyl]-3-methyl-1-piperidyl]-N-[3-(4-cyano-3-methoxy-phenoxy)-2,2,4,4-tetramethyl-cyclobutyl]benzamide] | ≤ 0.1 | < 1 | > 1 |
| CNC(=O)N1CCc2c(c(N3CCCc4cc(-c5cnn(C)c5)c(C(F)F)cc43)nn2C2CCN(C(=O)CC3CCN(c4ncc(C(=O)NC5C(C)(C)C(Oc6ccc(C#N)c(Cl)c6)C5(C)C)cn4)CC3)CC2)C1 (stereo not drawn) [Compound 101, 1-[1-[2-[1-[5-[[3-(3-chloro-4-cyano-phenoxy)-2,2,4,4-tetramethyl-cyclobutyl]carbamoyl]pyrimidin-2-yl]-4-piperidyl]acetyl]-4-piperidyl]-3-[7-(difluoromethyl)-6-(1-methylpyrazol-4-yl)-3,4-dihydro-2H-quinolin-1-yl]-N-methyl-6,7-dihydro-4H-pyrazolo[4,3-c]pyridine-5-carboxamide] | ≤ 0.1 | < 1 | > 10 |
| CNC(=O)N1CCc2c(c(N3CCCc4cc(-c5cnn(C)c5)c(C(F)F)cc43)nn2C2CCN(C(=O)COCCOCCN3CCN(c4ncc(C(=O)NC5C(C)(C)C(Oc6ccc(C#N)c(Cl)c6)C5(C)C)cn4)CC3)CC2)C1 (stereo not drawn) [Compound 103, 1-[1-[2-[2-[2-[4-[5-[[3-(3-chloro-4-cyano-phenoxy)-2,2,4,4-tetramethyl-cyclobutyl]carbamoyl]pyrimidin-2-yl]piperazin-1-yl]ethoxy]ethoxy]acetyl]-4-piperidyl]-3-[7-(difluoromethyl)-6-(1-methylpyrazol-4-yl)-3,4-dihydro-2H-quinolin-1-yl]-N-methyl-6,7-dihydro-4H-pyrazolo[4,3-c]pyridine-5-carboxamide] | 0.1 to 1 | < 1 | > 10 |
| COc1cc(OC2C(C)(C)C(NC(=O)c3cnc(N4CCC(CN5CCC(n6nc(N7CCCc8cc(-c9cnn(C)c9)c(C(F)F)cc87)c7c6CCN(C(C)=O)C7)CC5)C(C)(C)C4)nc3)C2(C)C)ccc1C#N (stereo not drawn) [Compound 360, 2-[4-[[4-[5-acetyl-3-[7-(difluoromethyl)-6-(1-methylpyrazol-4-yl)-3,4-dihydro-2H-quinolin-1-yl]-6,7-dihydro-4H-pyrazolo[4,3-c]pyridin-1-yl]-1-piperidyl]methyl]-3,3-dimethyl-1-piperidyl]-N-[3-(4-cyano-3-methoxy-phenoxy)-2,2,4,4-tetramethyl-cyclobutyl]pyrimidine-5-carboxamide] | ≤ 0.1 | < 1 | > 1 |
| COc1cc(OC2C(C)(C)C(NC(=O)c3ccc(N4CC(C)C(CN5CCC(n6nc(N7CCCc8cc(-c9cnn(C)c9)c(C(F)F)cc87)c7c6CCN(C(C)=O)C7)CC5)C(C)C4)cc3)C2(C)C)ccc1C#N (stereo not drawn) [Compound 327, 4-[4-[[4-[5-acetyl-3-[7-(difluoromethyl)-6-(1-methylpyrazol-4-yl)-3,4-dihydro-2H-quinolin-1-yl]-6,7-dihydro-4H-pyrazolo[4,3-c]pyridin-1-yl]-1-piperidyl]methyl]-3,5-dimethyl-1-piperidyl]-N-[3-(4-cyano-3-methoxy-phenoxy)-2,2,4,4-tetramethyl-cyclobutyl]benzamide] | 0.1 to 1 | < 1 | > 1 |
| CNC(=O)N1CCc2c(c(N3CCCc4cc(-c5cnn(C)c5)c(C(F)F)cc43)nn2C2CCN(C(=O)COCCOCC3CCN(c4ncc(C(=O)NC5C(C)(C)C(Oc6ccc(C#N)c(Cl)c6)C5(C)C)cn4)CC3)CC2)C1 (stereo not drawn) [Compound 104, 1-[1-[2-[2-[[1-[5-[[3-(3-chloro-4-cyano-phenoxy)-2,2,4,4-tetramethyl-cyclobutyl]carbamoyl]pyrimidin-2-yl]-4-piperidyl]methoxy]ethoxy]acetyl]-4-piperidyl]-3-[7-(difluoromethyl)-6-(1-methylpyrazol-4-yl)-3,4-dihydro-2H-quinolin-1-yl]-N-methyl-6,7-dihydro-4H-pyrazolo[4,3-c]pyridine-5-carboxamide] | 0.1 to 1 | < 1 | > 10 |
| CNC(=O)N1CCc2c(c(N3CCCc4cc(-c5cnn(C)c5)c(C(F)F)cc43)nn2C2CCN(C(=O)COCCOCCCN3CCN(c4ncc(C(=O)NC5C(C)(C)C(Oc6ccc(C#N)c(Cl)c6)C5(C)C)cn4)CC3)CC2)C1 (stereo not drawn) [Compound 102, 1-[1-[2-[2-[3-[4-[5-[[3-(3-chloro-4-cyano-phenoxy)-2,2,4,4-tetramethyl-cyclobutyl]carbamoyl]pyrimidin-2-yl]piperazin-1-yl]propoxy]ethoxy]acetyl]-4-piperidyl]-3-[7-(difluoromethyl)-6-(1-methylpyrazol-4-yl)-3,4-dihydro-2H-quinolin-1-yl]-N-methyl-6,7-dihydro-4H-pyrazolo[4,3-c]pyridine-5-carboxamide] | 0.1 to 1 | < 1 | > 10 |

Now from value to compound, other results behind:

| IC50 (VCaP cells) [nM] | EC50 (AR / CBP ternary complex) [nM] | SMILES | IC50 (HEK-293 cells) [µM] |
| --- | --- | --- | --- |
| ≤ 0.1 | < 1 | CC(=O)N1CCc2c(c(N3CCCc4cc(-c5cnn(C)c5)c(C(F)F)cc43)nn2C2CCN(C(=O)CN3CCN(c4ncc(C(=O)NC5C(C)(C)C(Oc6ccc(C#N)c(Cl)c6)C5(C)C)cn4)CC3)CC2)C1 (stereo not drawn) [Compound 96, 2-[4-[2-[4-[5-acetyl-3-[7-(difluoromethyl)-6-(1-methylpyrazol-4-yl)-3,4-dihydro-2H-quinolin-1-yl]-6,7-dihydro-4H-pyrazolo[4,3-c]pyridin-1-yl]-1-piperidyl]-2-oxo-ethyl]piperazin-1-yl]-N-[3-(3-chloro-4-cyano-phenoxy)-2,2,4,4-tetramethyl-cyclobutyl]pyrimidine-5-carboxamide] | > 10 |
| ≤ 0.1 | < 1 | CC(=O)N1CCc2c(c(N3CCCc4cc(-c5cnn(C)c5)c(C(F)F)cc43)nn2C2CN(C(=O)CN3CCN(c4ncc(C(=O)NC5C(C)(C)C(Oc6ccc(C#N)c(Cl)c6)C5(C)C)cn4)CC3)C2)C1 (stereo not drawn) [Compound 65, 2-[4-[2-[3-[5-acetyl-3-[7-(difluoromethyl)-6-(1-methylpyrazol-4-yl)-3,4-dihydro-2H-quinolin-1-yl]-6,7-dihydro-4H-pyrazolo[4,3-c]pyridin-1-yl]azetidin-1-yl]-2-oxo-ethyl]piperazin-1-yl]-N-[3-(3-chloro-4-cyano-phenoxy)-2,2,4,4-tetramethyl-cyclobutyl]pyrimidine-5-carboxamide] | > 10 |
| ≤ 0.1 | < 1 | CC(=O)N1CCc2c(c(N3CCCc4cc(-c5cnn(C)c5)c(C(F)F)cc43)nn2C2CCN(CC3C(C)CN(c4ncc(C(=O)NC5C(C)(C)C(Oc6ccc(C#N)c(Cl)c6)C5(C)C)cn4)CC3C)CC2)C1 (stereo not drawn) [Compound 350, 2-[4-[[4-[5-acetyl-3-[7-(difluoromethyl)-6-(1-methylpyrazol-4-yl)-3,4-dihydro-2H-quinolin-1-yl]-6,7-dihydro-4H-pyrazolo[4,3-c]pyridin-1-yl]-1-piperidyl]methyl]-3,5-dimethyl-1-piperidyl]-N-[3-(3-chloro-4-cyano-phenoxy)-2,2,4,4-tetramethyl-cyclobutyl]pyrimidine-5-carboxamide] | > 1 |
| ≤ 0.1 | < 1 | CC(=O)N1CCc2c(c(N3CCCc4cc(-c5cnn(C)c5)c(C(F)F)cc43)nn2C2CCN(CC3CCN(c4ncc(C(=O)NC5C(C)(C)C(Oc6ccc(C#N)c(Cl)c6)C5(C)C)cn4)CC3)CC2)C1 (stereo not drawn) [Compound 84, 2-[4-[[4-[5-acetyl-3-[7-(difluoromethyl)-6-(1-methylpyrazol-4-yl)-3,4-dihydro-2H-quinolin-1-yl]-6,7-dihydro-4H-pyrazolo[4,3-c]pyridin-1-yl]-1-piperidyl]methyl]-1-piperidyl]-N-[3-(3-chloro-4-cyano-phenoxy)-2,2,4,4-tetramethyl-cyclobutyl]pyrimidine-5-carboxamide] | > 10 |
| 0.1 to 1 | < 1 | CC(=O)N1CCc2c(c(-c3cccc4cc(-c5ccc(C(=O)NCc6ncc(C(=O)NC7C(C)(C)C(Oc8ccc(C#N)c(Cl)c8)C7(C)C)cn6)nc5)ncc34)nn2C2CCOCC2)C1 (stereo not drawn) [Compound 79, 2-[[[5-[8-(5-acetyl-1-tetrahydropyran-4-yl-6,7-dihydro-4H-pyrazolo[4,3-c]pyridin-3-yl)-3-isoquinolyl]pyridine-2-carbonyl]amino]methyl]-N-[3-(3-chloro-4-cyano-phenoxy)-2,2,4,4-tetramethyl-cyclobutyl]pyrimidine-5-carboxamide] | > 10 |
